Assay results as given in PubChem BioAssay AID330 (DTP/NCI, 2004).
“And” between values parts separate entries of the source, which are not always exact repeats. Equal entries are not always repeated. Inconclusive results and toxic doses are left out.

Tested on: P388 leukemia ip, CD2F1 mice, survival T/C
Assay: NCI In Vivo Anticancer Drug Screen. Data for tumor model P388 Leukemia (intraperitoneal) in CD2F1 (CDF1) mice
Conditions: endpoint: median survival time, higher = longer survival
Summary of the method: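 Mice carrying the transplanted tumor received test compound or vehicle. Survival was recorded in each group, and the value is the treated-group measurement divided by that of the vehicle-treated control group.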

[1] = dose: 6.25 mg/kg/injection, schedule: Q01DX009 (ip), vehicle: saline with Tween-80
[2] = dose: 12.5 mg/kg/injection, schedule: Q01DX009 (ip), vehicle: saline with Tween-80
[3] = dose: 25.0 mg/kg/injection, schedule: Q01DX009 (ip), vehicle: saline with Tween-80
[4] = dose: 50.0 mg/kg/injection, schedule: Q01DX009 (ip), vehicle: saline with Tween-80
[5] = dose: 100.0 mg/kg/injection, schedule: Q01DX009 (ip), vehicle: saline with Tween-80
[6] = dose: 200.0 mg/kg/injection, schedule: Q01DX009 (ip), vehicle: saline with Tween-80
[7] = dose: 50.0 mg/kg/injection, schedule: Q01DX005 (ip), vehicle: saline with Tween-80
[8] = dose: 100.0 mg/kg/injection, schedule: Q01DX005 (ip), vehicle: saline with Tween-80
[9] = dose: 200.0 mg/kg/injection, schedule: Q01DX005 (ip), vehicle: saline with Tween-80
[10] = dose: 25.0 mg/kg/injection, schedule: Q01DX009 (ip), vehicle: saline
[11] = dose: 60.0 mg/kg/injection, schedule: Q01DX005 (ip), vehicle: saline with Tween-80
[12] = dose: 50.0 mg/kg/injection, schedule: Q01DX009 (ip), vehicle: Klucel (hydroxypropylcellulose) (HPC)
[13] = dose: 100.0 mg/kg/injection, schedule: Q01DX009 (ip), vehicle: Klucel (hydroxypropylcellulose) (HPC)
[14] = dose: 200.0 mg/kg/injection, schedule: Q01DX009 (ip), vehicle: Klucel (hydroxypropylcellulose) (HPC)
[15] = dose: 12.5 mg/kg/injection, schedule: Q01DX005 (ip), vehicle: saline with Tween-80
[16] = dose: 25.0 mg/kg/injection, schedule: Q01DX005 (ip), vehicle: saline with Tween-80

In the case of `COc1ccccc1NC(=O)N(CCCl)N=O`, the T/C (dose: 3.0 mg/kg/injection, schedule: Q04DX003 (ip), vehicle: saline with Tween-80) is reported as 154 % of control, the T/C (dose: 6.0 mg/kg/injection, schedule: Q04DX003 (ip), vehicle: saline with Tween-80) is reported as 168 % of control and the T/C [1] is reported as 163 % of control. For the same molecule, the T/C (dose: 6.25 mg/kg/injection, schedule: Q04DX003 (ip), vehicle: saline with Tween-80) was 168 % of control, the T/C [2] was 200 % of control and the T/C (dose: 12.5 mg/kg/injection, schedule: Q04DX003 (ip), vehicle: saline with Tween-80) was 190 % of control. For the same molecule, the T/C (dose: 16.5 mg/kg/injection, schedule: Q04DX003 (ip), vehicle: saline with Tween-80) was 152 % of control, the T/C [3] was 95 % of control and the T/C (dose: 25.0 mg/kg/injection, schedule: Q04DX003 (ip), vehicle: saline with Tween-80) was 272 % of control. For the same molecule, the T/C (dose: 37.5 mg/kg/injection, schedule: Q04DX003 (ip), vehicle: saline with Tween-80) was 123 % of control.
With `CC(=O)Nc1cc2nc[nH]c2cn1` the T/C (dose: 100.0 mg/kg/injection, schedule: Q04DX002 (ip), vehicle: saline) was 99 % of control, the T/C (dose: 200.0 mg/kg/injection, schedule: Q04DX002 (ip), vehicle: saline) was 106 % of control and the T/C (dose: 400.0 mg/kg/injection, schedule: Q04DX002 (ip), vehicle: saline) was 106 % of control.
With `CCC(C)N(CCNc1cc(OC)cc2cccnc12)CCC(C)C` (centres undefined) the T/C (dose: 50.0 mg/kg/injection, schedule: Q01DX005 (ip), vehicle: saline) was 100 % of control and the T/C (dose: 100.0 mg/kg/injection, schedule: Q01DX005 (ip), vehicle: saline) was 97 % of control.
In the case of `CNC(=O)OCc1c(C)sc(-c2ccccc2)c1COC(=O)NC`, the T/C (dose: 12.5 mg/kg/injection, schedule: Q01DX005 (ip), vehicle: distilled water + Tween-80) is reported as 93 % of control, the T/C (dose: 25.0 mg/kg/injection, schedule: Q01DX005 (ip), vehicle: distilled water + Tween-80) is reported as 95 % of control and the T/C (dose: 50.0 mg/kg/injection, schedule: Q01DX005 (ip), vehicle: distilled water + Tween-80) is reported as 98 % of control. For the same molecule, the T/C (dose: 100.0 mg/kg/injection, schedule: Q01DX005 (ip), vehicle: distilled water + Tween-80) was 86 % of control.
`CCOC(=O)CN(C)C(c1ccccc1)c1cccs1` (centres undefined) was tested, and the T/C (dose: 100.0 mg/kg/injection, schedule: Q04DX002 (ip), vehicle: Klucel (hydroxypropylcellulose) (HPC)) was 102 % of control and the T/C (dose: 200.0 mg/kg/injection, schedule: Q04DX002 (ip), vehicle: Klucel (hydroxypropylcellulose) (HPC)) was 105 % of control.
With `O=[N+]([O-])c1cnc(-c2ccc(F)cc2)n1CCO` the T/C [4] was 100 % of control, the T/C [5] was 105 % of control and the T/C [6] was 112 % of control.
For `CSc1cc(C)c(C#N)c(SC)n1`, the T/C [7] was 92 % of control, the T/C [8] was 89 % of control and the T/C [9] was 99 % of control.
`COSc1ccc([N+](=O)[O-])cc1[N+](=O)[O-]` was tested, and the T/C [2] was 95 % of control, the T/C [3] was 96 % of control and the T/C [10] was 98 % of control. The T/C [4] was 103 % of control, the T/C (dose: 50.0 mg/kg/injection, schedule: Q01DX009 (ip), vehicle: saline) was 102 % of control and the T/C [5] was 103 % of control. The T/C (dose: 100.0 mg/kg/injection, schedule: Q01DX009 (ip), vehicle: saline) was 108 % of control and the T/C (dose: 200.0 mg/kg/injection, schedule: Q01DX009 (ip), vehicle: saline) was 111 % of control.
In the case of `CCCCCCC(/C=C/c1ccc(Cl)c(Cl)c1)=N\Nc1ccccc1`, the T/C [1] is reported as 103 % of control, the T/C [2] is reported as 97 % of control and the T/C [3] is reported as 103 % of control. For the same molecule, the T/C [4] was 100 % of control.
For `CCCC(=O)NN=C(C)C`, the T/C (dose: 12.5 mg/kg/injection, schedule: Q01DX009 (ip), vehicle: saline) was 104 % of control and the T/C [10] was 109 % of control.
`CCC[CH2][Sn]1([CH2]CCC)[O]C(=O)CSC(=S)SCC(=O)[O]1` was tested, and the T/C (dose: 1.56 mg/kg/injection, schedule: Q01DX009 (ip), vehicle: saline) was 90 % of control, the T/C (dose: 3.12 mg/kg/injection, schedule: Q01DX009 (ip), vehicle: saline) was 92 % of control and the T/C [1] was 116 % of control. The T/C (dose: 6.25 mg/kg/injection, schedule: Q01DX009 (ip), vehicle: saline) was 89 % of control.
`CCC(C)N=C1NS(=O)(=O)c2ccccc21` (centres undefined) was tested, and the T/C [7] was 105 % of control, the T/C [8] was 105 % of control and the T/C [9] was 102 % of control.
For `COc1nc2c(c(=O)n1C)C(=O)CN2C1OC(COC(C)=O)C(OC(C)=O)C(OC(C)=O)C1OC(C)=O` (centres undefined), the T/C [7] was 103 % of control, the T/C [8] was 108 % of control and the T/C [9] was 103 % of control.
`N#Cc1c(-c2ccccc2)cn2c1[nH]c(=O)c1c3c(sc12)CCCC3` was tested, and the T/C [11] was 88 % of control and 89 % of control, the T/C (dose: 120.0 mg/kg/injection, schedule: Q01DX005 (ip), vehicle: saline with Tween-80) was 87 % of control and the T/C (dose: 240.0 mg/kg/injection, schedule: Q01DX005 (ip), vehicle: saline with Tween-80) was 86 % of control and 87 % of control.
`CN(C)Cc1cn(C[Si](C)(C)C)c2ccccc12` was tested, and the T/C [11] was 112 % of control.
In the case of `FC(F)(F)c1nnc(-c2ccc3ccccc3c2)nn1`, the T/C (dose: 12.5 mg/kg/injection, schedule: Q01DX009 (ip), vehicle: Klucel (hydroxypropylcellulose) (HPC)) is reported as 104 % of control, the T/C (dose: 25.0 mg/kg/injection, schedule: Q01DX009 (ip), vehicle: Klucel (hydroxypropylcellulose) (HPC)) is reported as 103 % of control and the T/C [12] is reported as 103 % of control and 122 % of control. The T/C [13] was 105 % of control and 97 % of control and the T/C [14] was 100 % of control.
With `CC(C)C[C@H]1C(=O)N2CCC[C@H]2[C@]2(O)O[C@](NC(=O)[C@@H]3C=C4c5cccc6[nH]c(Br)c(c56)C[C@H]4N(C)C3)(C(C)C)C(=O)N12` the T/C [4] was 100 % of control, the T/C [5] was 100 % of control and the T/C [6] was 100 % of control.
In the case of `O=NC1C2CCC(C2)C1N=O.[Co].[c-]1[c-][c-][cH-][c-]1` (centres undefined), the T/C [15] is reported as 96 % of control, the T/C [16] is reported as 98 % of control and the T/C [7] is reported as 98 % of control and 92 % of control.
For `COc1ccc(CCNC2=CC(=O)CCC2)cc1OC`, the T/C [7] was 101 % of control, the T/C [8] was 99 % of control and the T/C [9] was 101 % of control.
`O=C(C(=S)c1ccccc1)N(Cc1ccccc1)Cc1ccccc1` was tested, and the T/C (dose: 100.0 mg/kg/injection, schedule: Q04DX003 (ip), vehicle: saline with Tween-80) was 108 % of control, the T/C (dose: 200.0 mg/kg/injection, schedule: Q04DX003 (ip), vehicle: saline with Tween-80) was 103 % of control and the T/C (dose: 400.0 mg/kg/injection, schedule: Q04DX003 (ip), vehicle: saline with Tween-80) was 103 % of control.
With `CCOC(=O)C(CCC(C)(C)SCc1ccccc1)(NC(C)=O)C(=O)OCC` the T/C [4] was 91 % of control, the T/C [5] was 91 % of control and the T/C [6] was 86 % of control.
`CC1([CH2][Hg][I])OCCOC1[CH2][Hg][I]` (centres undefined) was tested, and the T/C [10] was 105 % of control.
With `CC1(C)N=C(N)N=C(N)N1NC(=O)c1cccc(Cl)c1` the T/C (dose: 50.0 mg/kg/injection, schedule: Q04DX003 (ip), vehicle: saline) was 110 % of control, the T/C (dose: 100.0 mg/kg/injection, schedule: Q04DX003 (ip), vehicle: saline) was 100 % of control and the T/C (dose: 200.0 mg/kg/injection, schedule: Q04DX003 (ip), vehicle: saline) was 105 % of control.
In the case of `CSC(=S)n1nc(C)c(N=Nc2cc(Cl)ccc2Cl)c1C`, the T/C (dose: 6.25 mg/kg/injection, schedule: Q01DX005 (ip), vehicle: saline with Tween-80) is reported as 93 % of control, the T/C [15] is reported as 99 % of control and the T/C [16] is reported as 95 % of control. For the same molecule, the T/C [9] was 98 % of control.
In the case of `OCNC(=S)c1c(Cl)cccc1Cl`, the T/C [3] is reported as 111 % of control, the T/C [4] is reported as 111 % of control and the T/C [5] is reported as 109 % of control. The T/C [6] was 100 % of control.
`C=C(C)C1C/C=C(\C)CC/C=C(\C)CC/C=C(\C)CC1` (centres undefined) was tested, and the T/C (dose: 18.75 mg/kg/injection, schedule: Q01DX009 (ip), vehicle: saline + Tween-80 + alcohol) was 93 % of control, the T/C (dose: 37.5 mg/kg/injection, schedule: Q01DX009 (ip), vehicle: saline + Tween-80 + alcohol) was 101 % of control and the T/C (dose: 75.0 mg/kg/injection, schedule: Q01DX009 (ip), vehicle: saline + Tween-80 + alcohol) was 102 % of control. For the same molecule, the T/C (dose: 150.0 mg/kg/injection, schedule: Q01DX009 (ip), vehicle: saline + Tween-80 + alcohol) was 99 % of control.
In the case of `CN(C)c1ccc(Cc2ccc(N(C)C)c(C(O)(c3ccccc3)c3ccccc3)c2)cc1C(O)(c1ccccc1)c1ccccc1`, the T/C (dose: 1.56 mg/kg/injection, schedule: Q01DX005 (ip), vehicle: saline) is reported as 100 % of control, the T/C (dose: 3.13 mg/kg/injection, schedule: Q01DX005 (ip), vehicle: saline) is reported as 97 % of control and the T/C (dose: 6.25 mg/kg/injection, schedule: Q01DX005 (ip), vehicle: saline) is reported as 90 % of control.
For `CC(=N)C(C#N)C(=S)S` (centres undefined), the T/C [12] was 102 % of control, the T/C [13] was 86 % of control and the T/C [14] was 89 % of control.
`N=C(N)N` was tested, and the T/C [4] was 100 % of control and the T/C [5] was 100 % of control.
